Where “and” joins values, the source holds several entries; their conditions need not be identical. Equal values may be shown once. Read-outs that look alike come from different tables or passages of the source.
Tests used:
[1] = tested on: P. syringae pv. tomato DC3000; type: cell-based, Pseudomonas syringae pv. tomato; conditions: for uptake rate: DC3000 grown without choline and betaine as inducers, substrate 10 μM
[2] = tested on: CbcXWV from P. aeruginosa PAO1; type: cell-based, Pseudomonas aeruginosa; conditions: MKH13, pCbcPAO1; radiolabelled substrate 1 mM; mean (SE), n = 10
[3] = tested on: cbcXWV from B728a in QAC transporter-deficient BT strain; type: cell-based, Pseudomonas syringae pv. syringae; conditions: BT(pCbcB728a), unlabelled competitor 0.5 mM, 10 min
[4] = tested on: cbcXWV from PAO1 in QAC transporter-deficient BT strain; type: cell-based, Pseudomonas aeruginosa; conditions: BT(pCbcPAO1), unlabelled competitor 0.5 mM, 10 min
[5] = tested on: Cbc core transporter CbcWV (PAO1) with chromosomally encoded SBPs; type: cell-based, Pseudomonas aeruginosa; conditions: pNcbcWV
CbcWV with CaiXPAO1 = type: cell-based, Pseudomonas aeruginosa; conditions: MKH13; pNcbcWV, pT-PA5388; SBP CaiXPAO1; substrate 10 μM; single replication
CbcWV with BetXPAO1 = type: cell-based, Pseudomonas aeruginosa; conditions: MKH13; pNcbcWV, pT-PA3236; SBP BetXPAO1; substrate 10 μM; single replication
CbcWV with BetXB728a = type: cell-based, Pseudomonas syringae pv. syringae; conditions: MKH13; pNcbcWV, pT-B3758; SBP BetXB728a; substrate 10 μM; single replication
CbcWV with BetXDC3000 = type: cell-based, Pseudomonas syringae pv. tomato; conditions: MKH13; pNcbcWV, pT-D3758; SBP BetXDC3000; substrate 10 μM; single replication
[6] = tested on: S. meliloti Cho transporter ChoXWV; type: cell-based, Sinorhizobium meliloti; conditions: MKH13; pNchoXWV, Plasmid 2 None; SBP ChoX; substrate 10 μM; single replication
CbcX with CbcWV [7] = target: T1, CbcX with CbcWV (Pseudomonas aeruginosa, UniProt Q9HTI6); test: Competitive uptake, MKH13 expressing cbcXWV; type: cell-based; conditions: MKH13, pNcbcXWV, SBP CbcX, competitor 1 mM
ChoXWV [8] = target: T2, ChoXWV (Sinorhizobium meliloti, UniProt Q92N37); test: Competitive uptake, MKH13 expressing choXWV; type: cell-based; conditions: pNchoXWV, SBP ChoX, [^14C]choline 10 μM, competitor 1 mM
T2 sequence (Q92N37 28-318): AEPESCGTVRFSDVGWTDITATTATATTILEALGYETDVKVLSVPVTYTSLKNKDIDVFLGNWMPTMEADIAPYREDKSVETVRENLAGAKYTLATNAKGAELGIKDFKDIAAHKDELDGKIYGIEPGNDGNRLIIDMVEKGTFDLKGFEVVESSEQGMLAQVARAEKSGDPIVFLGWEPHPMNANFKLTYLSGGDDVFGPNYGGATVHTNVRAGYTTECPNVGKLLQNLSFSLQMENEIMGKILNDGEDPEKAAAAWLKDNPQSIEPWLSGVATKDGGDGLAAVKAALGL
T2 sequence (Q92N36 1-281 partner): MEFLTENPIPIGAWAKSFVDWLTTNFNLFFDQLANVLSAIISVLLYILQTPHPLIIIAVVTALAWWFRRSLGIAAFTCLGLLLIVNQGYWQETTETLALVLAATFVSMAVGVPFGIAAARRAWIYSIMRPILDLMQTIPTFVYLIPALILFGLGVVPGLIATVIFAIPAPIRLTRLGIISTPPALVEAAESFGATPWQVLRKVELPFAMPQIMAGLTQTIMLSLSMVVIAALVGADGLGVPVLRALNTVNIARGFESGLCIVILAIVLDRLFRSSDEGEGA
T2 sequence (Q92N35 1-349 partner): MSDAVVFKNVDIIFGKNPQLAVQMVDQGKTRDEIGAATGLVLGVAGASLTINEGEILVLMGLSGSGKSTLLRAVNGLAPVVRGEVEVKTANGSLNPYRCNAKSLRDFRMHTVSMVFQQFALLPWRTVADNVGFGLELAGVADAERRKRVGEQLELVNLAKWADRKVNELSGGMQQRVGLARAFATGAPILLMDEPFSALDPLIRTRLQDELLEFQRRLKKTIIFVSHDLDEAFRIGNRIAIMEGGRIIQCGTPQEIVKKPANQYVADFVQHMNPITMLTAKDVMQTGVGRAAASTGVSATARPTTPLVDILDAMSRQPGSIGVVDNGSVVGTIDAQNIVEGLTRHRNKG

CbcX with CbcWV [9] = target: T1, CbcX with CbcWV
CbcWV-CaiX = CbcWV-CaiX (Pseudomonas aeruginosa, UniProt Q9HTH6); test: Uptake kinetics, PA5378::tn; conditions: pNcbcWV, SBP CaiXPAO1, mean (SE), n = 4
ChoXWV [10] = target: T2, ChoXWV; test: Uptake kinetics, MKH13; conditions: MKH13, pNchoXWV; SBP ChoX; mean (SE), n = 4
[11] = host BT0028Ko, substrate 10 μM, mean (SE), n = 2
[12] = host BT2916Ko, substrate 10 μM, single replication
[13] = host BT3758Ko, substrate 10 μM, mean (SE), n = 3

Structure (SMILES) | uptake rate [1] | Total uptake [2] | % inhibition of uptake of [^14C]substrate ([3]; [^14C]betaine 5 μM) [%] | % inhibition of uptake of [^14C]substrate ([3]; [^14C]carnitine 5 μM) [%] | % inhibition of uptake of [^14C]substrate ([3]; [^14C]choline 5 μM) [%] | % inhibition of uptake of [^14C]substrate ([4]; [^14C]betaine 5 μM) [%] | % inhibition of uptake of [^14C]substrate ([4]; [^14C]carnitine 5 μM) [%] | % inhibition of uptake of [^14C]substrate ([4]; [^14C]choline 5 μM) [%] | Total uptake [5, 11] | Total uptake [5, 12] | Total uptake [5, 13] | Total uptake (CbcWV with CaiXPAO1) | Total uptake (CbcWV with BetXPAO1) | Total uptake (CbcWV with BetXB728a) | Total uptake (CbcWV with BetXDC3000) | Total uptake [6] | % inhibition of uptake of substrate by unlabelled competitor (CbcX with CbcWV [7]; [^14C]betaine 10 μM) [%] | % inhibition of uptake of substrate by unlabelled competitor (CbcX with CbcWV [7]; [^14C]choline 10 μM) | % inhibition of uptake of substrate by unlabelled competitor (ChoXWV [8]) [%] | further results
C[N+](C)(C)CC(=O)O [Betaine, glycine betaine] | 0.6 nmol min^−1 (mg protein)^−1 | 5.8 (1.1) nmol (mg protein)^−1 | 93 | 83 | 19 | 83 | 84 | 9 | 17.2 (0.2) nmol (mg protein)^−1 | 17.2 nmol (mg protein)^−1 | 0.1 (0.01) nmol (mg protein)^−1 | 0 nmol (mg protein)^−1 | 21.6 nmol (mg protein)^−1 | 11.9 nmol (mg protein)^−1 | 6.1 nmol (mg protein)^−1 | 2.7 nmol (mg protein)^−1 | 87 | not inhibited | 3 | increase of initial uptake rate after growth with inducer ([1]; DC3000 grown with 10 mM choline or betaine as inducers): three- to fourfold; % inhibition of uptake of substrate by unlabelled competitor (CbcX with CbcWV [7]; [^14C]choline 10 μM, listed as Bet): 2%; fold lower affinity of CbcX for betaine than choline (CbcX with CbcWV [9]): approximately 10 fold; maximal rate of uptake (Vmax) (CbcX with CbcWV [9]; MKH13, pNcbcXWV, SBP CbcX, mean (SE), n = 4): 11.6 (0.6) nmol min^−1 (mg protein)^−1; maximal rate of uptake (Vmax) (CbcX with CbcWV [9]; MKH13, pNcbcXWV, SBP CbcX, mean (SE), n = 4, listed as betaine): 11.6 nmol min^−1 (mg protein)^−1
C[N+](C)(C)C[C@H](O)CC(=O)[O-] [Carnitine, L-carnitine] | – | 0.8 (0.4) nmol (mg protein)^−1 | 5 | 93 | 5 | 2 | 94 | 1 | 16.3 (0.91) nmol (mg protein)^−1 | 0.3 nmol (mg protein)^−1 | 15.1 (0.16) nmol (mg protein)^−1 | 3.8 nmol (mg protein)^−1 | 0 nmol (mg protein)^−1 | 0 nmol (mg protein)^−1 | 0 nmol (mg protein)^−1 | 0 nmol (mg protein)^−1 | 3 | 6% | 41 | maximal rate of uptake (Vmax) (CbcWV-CaiX): 3.8 (0.33) nmol min^−1 (mg protein)^−1
C[N+](C)(C)CCO [Choline, choline] | 1.8 nmol min^−1 (mg protein)^−1 | 12.1 (1.1) nmol (mg protein)^−1 | 3 | 75 | 93 | −6 | 77 | 84 | 0.11 (0.05) nmol (mg protein)^−1 | 0.15 nmol (mg protein)^−1 | 0.15 (0.05) nmol (mg protein)^−1 | 0 nmol (mg protein)^−1 | 0 nmol (mg protein)^−1 | 0 nmol (mg protein)^−1 | 0 nmol (mg protein)^−1 | 4.7 nmol (mg protein)^−1 | 99 | 92% | 98 | increase of initial uptake rate after growth with inducer [1]: three- to fourfold; Total uptake ([5]; host BT0028Ko, substrate 1 mM, mean (SE), n = 2): 8.9 (1.4) nmol (mg protein)^−1; Total uptake ([5]; host BT2916Ko, substrate 1 mM, single replication): 8.6 nmol (mg protein)^−1; Total uptake ([5]; host BT3758Ko, substrate 1 mM, mean (SE), n = 3): 7.1 (0.6) nmol (mg protein)^−1; maximal rate of uptake (Vmax) (CbcX with CbcWV [9]): 34.6 nmol min^−1 (mg protein)^−1 and 34.6 (2.2) nmol min^−1 (mg protein)^−1; maximal rate of uptake (Vmax) (ChoXWV [10]): 1.2 (0.05) nmol min^−1 (mg protein)^−1

From article PMC5503199 (Molecular microbiology, 2009)
